Measured values as given in patent US20200383985A1, “Inhibitors of Protease Activated Receptor-2” (Endosome Therapeutics, Inc., priority 2017, published 2020).

How the values were obtained:
PKC and ERK activity = experiment: FRET assays of compartmentalized PKC and ERK in DRG neurons; type: cell-based, rat
Experimental: To determine whether trypsin causes PAR2-dependent activation of PKC and ERK, which respectively mediate initial and persistent trypsin-induced hyperexcitability of nociceptors, genetically-encoded Förster Resonance Energy Transfer (FRET) biosensors were expressed in neurons. […] Trypsin (10 or 100 nM) activated PKC at the plasma membrane but not in the cytosol (FIG. 4E-G), and activated ERK in the cytosol and nucleus (FIG. 4H-J). The PAR2 antagonist I-343 (10 μM) inhibited trypsin-induced activation of PKC and ERK, whereas the PAR1 antagonist SCH530348 (100 nM) had no effect (FIG. 4F, I). At the end of experiments, neurons were challenged with the positive controls phorbol 12,13-dibutyrate (PDBu) for EKAR biosensors or PDBu plus phosphatase inhibitor mixture-2 for CKAR biosensors, to ensure that the response of the biosensor was not saturated.
DRG were collected from C57BL/6 mice and Sprague-Dawley rats (all levels). DRG were incubated with collagenase IV (2 mg/ml) and dispase II (1 mg/ml) for 30 min (mice) and 45 min (rats) at 37° C. DRG were dispersed by trituration with a fire-polished Pasteur pipette. Dissociated neurons were transfected with mPAR2-GFP (1 μg), the FRET biosensors CytoEKAR, NucEKAR, pmCKAR or CytoCKAR (all […]), or with the BRET biosensors PAR2-RLuc8 (125 ng) and βARR2-FYP (475 ng) using the Lonza 4D-Nucleofector X unit according to the manufacturer's instructions. Neurons were plated on laminin- (0.004 mg/ml) and poly-L-Lysine- (0.1 mg/ml) coated glass coverslips for confocal microscopy, on ViewPlate-96 plates (PerkinElmer) for FRET assays, or on CulturPlates (PerkinElmer) for BRET assays. Neurons were maintained in Dulbecco's modified Eagle medium (DMEM) containing 10% fetal bovine serum (FBS), antibiotic-antimitotic, and N1 supplement for 48 h before study.
Rat DRG neurons expressing FRET biosensors were serum-restricted (0.5% FBS overnight), and equilibrated in HBSS-HEPES (10 mM HEPES, pH 7.4, 30 min, 37° C.). FRET was analyzed using an Operetta CLS High-Content Imaging System (PerkinElmer) or an INCell Analyzer 2000 G E Healthcare Life Sciences). For CFP/YFP emission ratio analysis, cells were sequentially excited using a CFP filter (410-430 nm) with emission measured using YFP (520-560 nm) and CFP (460-500 nm) filters. Cells were imaged at 1 or 2 min intervals. Baseline was measured, neurons were challenged with trypsin (10 or 100 nM) or vehicle, and responses recorded for a further 30 min. Neurons were then challenged with phorbol 12,13-dibutyrate (PDBu, 200 nM, 10 min) for EKAR biosensors or PDBu (200 nM) and phosphatase inhibitor cocktail-2 (SigmaAldrich, 10 min) for CKAR biosensors. Data were analyzed using Harmony 4.1 or Image J 1.51 software. Images taken were aligned, cells were selected based on diameter, and fluorescence intensity was calculated for both FRET and CFP channels. Background intensity was subtracted and the FRET ratio was determined as the change in the FRET/donor (EKAR) or donor/FRET (CKAR) emission ratio relative to the baseline for each cell (F/Fo). Cells with >5% changes in F/F0 after PDBu stimulation were selected for analysis. Neurons were incubated with I-343 (10 μM), SCH530348 (100 nM) or vehicle (30 min, 37° C. preincubation and inclusion throughout).

colonic afferent neurons = experiment: Colonic afferent recordings, CVH mice (28 d post-TNBS); parameters: species or system mouse
Experimental: Transient colitis in mice induces hypersensitivity of colonic afferent neurons that persists after inflammation is resolved (Azpiroz F., et al., Neurogastroenterol Motil. 2007, 19(1 Suppl): 62-88). This chronic visceral hypersensitivity (CVH) may mimic post-infectious/inflammatory IBS. To determine whether proteases can further amplify CVH, mice were treated with trinitrobenzene sulphonic acid (TNBS, enema) to induce colitis. At 28 d post-TNBS, when inflammation is undetectable, mechanical stimulation of the colon induced a larger firing rate in CVH mice than in HC mice, consistent with chronic hyperexcitability (FIG. 21A-D). […] Thus, proteases can still amplify the excitability of colonic nociceptors even when they are already sensitized as a result of prior inflammation. The colon and rectum (5-6 cm) was removed from C57BL/6 mice. Afferent recordings were made from splanchnic nerves as described (Hughes, P. A. et al., Gut 2009, 58(10): 1333-134; Brierley, S. M. et al., Gastroenterology 2004, 127(1): 166-178). Briefly, the intestine was opened and pinned flat, mucosal side up, in an organ bath. […] Action potentials were analyzed using the Spike 2 […] function and discriminated as single units on the basis of distinguishable waveform, amplitude and duration. […]

[1] = trypsin 10 or 100 nM, rat DRG neurons

Compound | trypsin-induced activation of PKC and ERK (PKC and ERK activity; I-343 10 μM, SCH530348 100 nM) | further amplification of responses compared to basal, CVH mice (colonic afferent neurons) | ERK activity in the cytosol and nucleus (PKC and ERK activity; [1]) | PKC activity at the plasma membrane (PKC and ERK activity; [1]) | PKC activity in the cytosol (PKC and ERK activity; [1])
Cc1nc(C(=O)N2CCN(C(=O)c3cn4nc(-c5ccc(F)cc5)cc(C(C)(C)C)c4n3)C(C)(C)C2)n[nH]1 [Compound I-343, (8-(tert-butyl)-6-(4-fluorophenyl)imidazo[1,2-b]pyridazin-2-yl)(2,2-dimethyl-4-(5-methyl-1H-1,2,4-triazole-3-carbonyl)piperazin-1-yl)methanone] | inhibited | – | – | – | –
trypsin | – | 16.4±7.9% | activated | activated | not
NE: protease (elastase) activating PAR2 by biased mechanisms | – | 30.6±9.0% | – | – | –
